Results on eight molecules are retold here after PMC5609127 (ACS Chemical Neuroscience, 2017).

Where only a bound is given, the exact number is not on record here.

The target in assay [1] is T1, RXRα (Homo sapiens, UniProt P19793).
T1 sequence (P19793 227-458 limits assumed): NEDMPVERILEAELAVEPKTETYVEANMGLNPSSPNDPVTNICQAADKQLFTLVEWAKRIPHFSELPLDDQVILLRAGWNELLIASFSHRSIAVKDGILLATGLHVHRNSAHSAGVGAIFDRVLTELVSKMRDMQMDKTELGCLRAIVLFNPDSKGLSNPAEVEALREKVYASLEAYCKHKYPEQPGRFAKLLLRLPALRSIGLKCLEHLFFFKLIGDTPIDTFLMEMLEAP
Kind of assay: Fluorescence polarization. The assay is classed as biochemical. The settings on record: for agonist character in FP assay: agonist format.

In assay [2] the target is T2, RXRα (Homo sapiens, UniProt P19793).
T2 sequence (P19793 1-462): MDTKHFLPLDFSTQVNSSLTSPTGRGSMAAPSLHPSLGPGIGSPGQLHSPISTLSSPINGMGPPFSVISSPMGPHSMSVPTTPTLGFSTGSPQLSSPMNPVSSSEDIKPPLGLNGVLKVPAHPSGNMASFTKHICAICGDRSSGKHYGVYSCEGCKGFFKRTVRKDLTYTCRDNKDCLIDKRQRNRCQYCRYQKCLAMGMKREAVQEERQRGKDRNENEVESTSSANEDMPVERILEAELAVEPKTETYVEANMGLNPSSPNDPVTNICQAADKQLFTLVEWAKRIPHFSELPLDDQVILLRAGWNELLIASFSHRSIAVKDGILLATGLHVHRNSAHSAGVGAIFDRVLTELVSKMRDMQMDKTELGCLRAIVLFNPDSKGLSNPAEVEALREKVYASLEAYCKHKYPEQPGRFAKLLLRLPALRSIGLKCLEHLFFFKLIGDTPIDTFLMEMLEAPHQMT
As to the kind of experiment: Mammalian two-hybrid. The assay is classed as cell-based. The settings on record: for agonist character in M2H assay: agonist format.

For a further assay, the target named is T3, RXRα–RXRα homodimer (Homo sapiens, UniProt P19793).
T3 sequence (P19793 1-462) 1: T2 sequence (P19793 1-462)
T3 sequence (P19793 1-462) 2: T2 sequence (P19793 1-462)
As to the kind of experiment: BRET2 homodimerization assay. In general terms: Bioluminescence resonance energy transfer reports proximity on the nanometre scale.

In another assay the target is RXRα–NURR1 heterodimer (Homo sapiens, UniProt P19793). Kind of assay: BRET2 heterodimerization assay. The settings on record: for NURR1–RXRα vs RXRα–RXRα selectivity: BRET2 potency ratio heterodimer vs homodimer.
Chain of RXRα–NURR1 heterodimer (P43354 whole entry partner, one chain of several): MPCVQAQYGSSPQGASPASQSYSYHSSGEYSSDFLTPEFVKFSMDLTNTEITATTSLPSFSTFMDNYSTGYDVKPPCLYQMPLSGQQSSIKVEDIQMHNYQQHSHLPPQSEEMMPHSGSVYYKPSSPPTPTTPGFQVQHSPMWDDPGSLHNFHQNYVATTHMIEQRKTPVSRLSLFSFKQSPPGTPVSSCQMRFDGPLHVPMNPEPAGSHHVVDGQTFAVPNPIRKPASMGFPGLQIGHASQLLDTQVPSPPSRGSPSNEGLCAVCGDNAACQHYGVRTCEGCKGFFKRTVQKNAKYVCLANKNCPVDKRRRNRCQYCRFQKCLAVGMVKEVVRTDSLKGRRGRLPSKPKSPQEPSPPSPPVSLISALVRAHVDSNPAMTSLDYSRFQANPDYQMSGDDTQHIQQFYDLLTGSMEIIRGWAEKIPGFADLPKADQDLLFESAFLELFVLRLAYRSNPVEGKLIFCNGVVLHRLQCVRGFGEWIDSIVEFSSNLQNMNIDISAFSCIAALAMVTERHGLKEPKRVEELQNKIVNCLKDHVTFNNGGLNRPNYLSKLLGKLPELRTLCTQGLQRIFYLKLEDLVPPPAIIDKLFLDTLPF
Assay [3] concerns the target T1, RXRα. As to the kind of experiment: Fluorescence polarization competition assay against LG100268. The class given is biochemical. The settings on record: for antagonist character in FP competition assay: competition against LG100268 (50 nM). A general note: Polarisation of emitted light reports the rotation of a fluorescent probe.
Assay [4] has as its target T2, RXRα. Kind of assay: M2H luciferase competition assay against LG100268. The class given is cell-based. The settings on record: ligand in the 10–40 μM range after stimulation with LG100268 (10 nM).
Where [5] appears, read: FP/EC50, His6-RXRα-LBD 1 μM, fluorescein-labeled D22 coactivator peptide 0.1 μM.

Usually EC50 stands for the midpoint of the concentration-response curve. Read a low EC50 as a more potent agent. Consider `O=C(O)/C=C/c1ccc(O)c(-c2cccc(-c3ccccc3)c2)c1` [ligand 2, (E)-3-(6-Hydroxy-[1,1′:3′,1″-terphenyl]-3-yl)acrylic Acid], for which the EC50 on RXRα [1] (setting [5]) is 140 ± 23 nM; on RXRα [2], 85 ± 9 nM; at RXRα–RXRα homodimer, 31.6 nM; at RXRα–NURR1 heterodimer it was 3.16 nM. On RXRα–NURR1 heterodimer, the “NURR1–RXRα vs RXRα–RXRα selectivity” value is 10 fold.

Consider `O=C(O)/C=C/c1ccc(O)c(-c2cccc(Cc3ccccc3)c2)c1` [ligand 3, (E)-3-(3′-Benzyl-6-hydroxy-[1,1′-biphenyl]-3-yl)acrylic Acid], for which the EC50 is 142 ± 9 nM at RXRα [1] (setting [5]), 92 ± 36 nM on RXRα [2], 20 nM on RXRα–RXRα homodimer and 2.51 nM at RXRα–NURR1 heterodimer. The “NURR1–RXRα vs RXRα–RXRα selectivity” value at RXRα–NURR1 heterodimer amounted to 8 fold.

`CC(C)c1cccc(-c2cc(/C=C/C(=O)O)ccc2O)c1` [ligand 4, (E)-3-(6-Hydroxy-3′-isopropyl-[1,1′-biphenyl]-3-yl)acrylic Acid]: the results for the EC50 on RXRα [1] (setting [5]), at RXRα [2] and on RXRα–NURR1 heterodimer were 89 ± 7 nM, 5.8 ± 1.8 nM and 0.794 nM, respectively. The “NURR1–RXRα vs RXRα–RXRα selectivity” value on RXRα–NURR1 heterodimer stood at 25 fold.

Regarding `CCCc1cccc(-c2cc(/C=C/C(=O)O)ccc2O)c1` [ligand 5, (E)-3-(6-Hydroxy-3′-propyl-[1,1′-biphenyl]-3-yl)acrylic Acid], the EC50 on RXRα [1] (setting [5]) is 170 ± 80 nM; on RXRα [2] it was 18 ± 10 nM; at RXRα–RXRα homodimer it was 100 nM; at RXRα–NURR1 heterodimer it was 5.01 nM. For the same molecule, on RXRα–NURR1 heterodimer, the “NURR1–RXRα vs RXRα–RXRα selectivity” value is reported as 20 fold.

On to `Cc1c(-c2ccccc2)cccc1-c1cc(/C=C/C(=O)O)ccc1O` [ligand 6, (E)-3-(6-Hydroxy-2′-methyl-[1,1′:3′,1″-terphenyl]-3-yl)acrylic Acid], for which the EC50 at RXRα [1] (setting [5]) is 9900 ± 2500 nM; at RXRα [1] (potency range in FP assay), 1000 to 10000 nM; at RXRα [2], more than 2500 nM; at RXRα–RXRα homodimer, 158 nM; on RXRα–NURR1 heterodimer, 794 nM. Further, the “agonist character in FP assay” value at RXRα [1] is on record as “full agonism”. The “agonist character in M2H assay” value at RXRα [2] is on record as “full agonism”. Besides, on RXRα–NURR1 heterodimer, the “NURR1–RXRα vs RXRα–RXRα selectivity” value is given as 0.2 fold.

Take `Cc1ccc(-c2ccccc2)cc1-c1cc(/C=C/C(=O)O)ccc1O` [ligand 7, (E)-3-(6-Hydroxy-6′-methyl-[1,1′:3′,1″-terphenyl]-3-yl)acrylic Acid]: the EC50 on RXRα [1] (setting [5]) was 1020 ± 60 nM; on RXRα [1] (potency range in FP assay) it was 1000 to 10000 nM; at RXRα–RXRα homodimer, 31.6 nM; at RXRα–NURR1 heterodimer, 79.4 nM. Further, the “agonist character in FP assay” value on RXRα [1] is “full agonism”. Moreover, the “agonist character in M2H assay” value on RXRα [2] is given as “full agonism”. In addition, the “NURR1–RXRα vs RXRα–RXRα selectivity” value at RXRα–NURR1 heterodimer is 0.4 fold.

Usually IC50 stands for the concentration that gives 50% inhibition. A higher IC50 goes with a need for much substance. `C=CCc1ccc(OCCC)c(-c2cc(/C=C/C(=O)O)ccc2O)c1` [ligand 9, (E)-3-(5′-Allyl-6-hydroxy-2′-propoxy-[1,1′-biphenyl]-3-yl)acrylic Acid]: on RXRα [1], the “agonist character in FP assay” value is listed as “partial agonism”. On RXRα [3], the half-maximal inhibitory concentration (IC50) is 48500 ± 4600 nM and the “antagonist character in FP competition assay” value was “partial antagonism”. Moreover, the “effect in M2H competition assay” value at RXRα [4] is listed as “clear decrease in luciferase expression”. In addition, the EC50 on RXRα–RXRα homodimer was 20 nM. In addition, the “bias toward RXRα homodimers over RXRα–NURR1 heterodimers (factor)” value on RXRα–RXRα homodimer (BRET2) is listed as 10. On RXRα–NURR1 heterodimer, a half-maximal effect (EC50) was put at 158 nM and the “NURR1–RXRα vs RXRα–RXRα selectivity” value was 0.1 fold.

As for `C=CCc1ccc(OCCCCCC)c(-c2cc(/C=C/C(=O)O)ccc2O)c1` [ligand 10, (E)-3-(5′-Allyl-2′-(hexyloxy)-6-hydroxy-[1,1′-biphenyl]-3-yl)acrylic Acid], at RXRα [3], the IC50 stood at 46900 ± 5900 nM and the “antagonist character in FP competition assay” value is on record as “full antagonism”. Also, at RXRα [4], the “effect in M2H competition assay” value is listed as “clear decrease in luciferase expression”. Further, on RXRα–RXRα homodimer, the EC50 was more than 10000 nM and the “activity in BRET2 assay (RXRα–RXRα)” value is recorded as “did not show appreciable activity”. On RXRα–NURR1 heterodimer, the EC50 is more than 10000 nM and the “activity in BRET2 assay (RXRα–NURR1)” value is on record as “did not show appreciable activity”.
